Experimental data reported in patent publication US7803792B2, “Quaternary ammonium compounds” (Asahi Kasei Pharma Corporation, priority 2002, dated 2010).

Assays:
[1] = test system: bile duct partial ligation model; experiment: Cholestasis-caused hepatopathy model, bile duct partial ligation, IBAT inhibiting compounds, blood after 24 hours (Test Example 13); type: in vivo, rat; settings: blood 24 hours after administration, N = 3, average ± standard error
Method: “Cholestasis-Caused Hepatopathy” Model (Bile Duct Partial Ligation Model)
In this test example, the model of cholestasis-caused hepatopathy was tested according to the method described in Test Example 5.
That is, the abdomens of 8 to 10 weeks old SD (IGS) male rats were cut open under anesthesia with pentobarbital and partial ligation surgery of the bile duct was carried out. After the surgery, 200 mg/kg of bile acid and an IBAT inhibiting compound were forcibly orally administered to the rats (each n=3). As a control group, physiological saline […] was administered (n=3). To observe the effect of the partial ligation surgery, a sham group (the abdomen was cut open under anesthesia with pentobarbital but partial ligation surgery of the bile duct was not carried out) and an untreated group were established (each n=3). After 24 hours from the administration a blood sample was taken from the abdominal aorta and AST, ALT, and ALP in the blood were measured using the method described in Test Example 5.

[2] = test system: bile acid loaded model; experiment: Cholestasis-caused hepatopathy model, bile acid loaded model, 4.5 days (Test Example 14); type: in vivo, rat; settings: administration period 4.5 days, N = 6, average ± standard error
Method: “Cholestasis-Caused Hepatopathy” Model (Bile Acid Loaded Model)
In this test example, the model of hepatopathy due to loading of bile acid was carried out similarly to the protocol B in Test Example 5. However, the administration period in this test example was changed to 4.5 days. […] Therefore, the compounds have proven to be useful as drugs for the treatment and prevention of cholestasis-caused hepatopathy, in particular as drugs for the treatment and prevention of primary biliary cirrhosis and primary sclerosing cholangitis. Moreover, the compounds of other examples of the present invention not shown in Tables 18 and 19 can be expected to have excellent ameliorating effects on cholestasis-caused hepatopathy.

[3] = test system: Caco 2 cells; experiment: Toxicity with respect to alimentary canal: cytotoxicity to Caco 2, LDH activity (Test Example 12); type: cell-based, human; settings: LDH activity after 2 hours; for Toxicity (%) to Caco 2: relative to cytolytic agent = 100%
Method: Toxicity With Respect to Alimentary Canal
To evaluate the toxicity of the compounds of the present invention to the alimentary canal, the cytotoxicity to Caco 2, which is a human originated small intestine epithelial cell line, was tested by referring to the method of Bestwick C S et al. [Biochimica et Biophysica Acta 1474: 47-55, 1999].
That is, Caco 2 cells (purchased from ATCC) were inoculated on a 96-well plate such that there were 10,000 cells/well [MEM-E medium, 10% FBS (Fetal Bovine Serum), 1% NEAA (Non Essential Amino Acid) solution, (both manufactured by GIBCO PHARMACEUTICAL COMPANY)]. After culturing for 48 hours, the test compounds were diluted with the culture medium and added to the respective wells. After 2 hours, 50 μl of the culture broth was collected and the LDH activity in the collected culture broth was measured by using an LDH activity measuring kit (CytoTox 96 Non-Radioactive Cytotoxicity Assay, manufactured by PROMEGA CORPORATION). Relative activities were calculated assuming the LDH activity as 100% when the Caco 2 cells were treated with the cytolytic agent and the obtained relative activities were taken as cytotoxicities to Caco 2 cell.

[4] = test system: Cholic acid-loaded rat model; experiment: Bile acid-decreasing effect in portal vein of rats loaded with cholic acid (Test Example 2); type: in vivo; settings: portal vein blood after 2 hours
Method: Bile Acid-Decreasing Effect in Portal Vein of Rats Loaded With Cholic Acid
In this test example, the test for confirming the bile acid-decreasing effect in portal vein of cholic acid-loaded rats was carried out according to the method described in Pharmacology and Therapeutics [Jpn Pharmacol. Ther., Vol. 24 Supplement, 1996, 103 (S-577)-110 (S-584)].
That is, 7 to 9 weeks old SD (IGS) rats were starved on the day before the test and thereafter. […] After 2 hours from the administration, a sample of blood was taken from a portal vein and total serum bile acid level was measured to study the effect of the test compound (n=6). Further, as a control group, a group (n=6) loaded with cholic acid (200 mg/kg) only was prepared and the same test procedure was followed. A commercially available kit (trade name: SOTANJUSAN-TEST WAKO-(SOTANJUSAN=total bile acid), manufactured by WAKO PURE CHEMICAL […], LTD.) was used for the measurement of bile acid. Assuming the value of the control group, which is a group in which no test compound was used, as 100%, the rate of decrease (percentage (%) of decrease) of the bile acid level when a fixed amount of the test compound was used was determined.

[5] = molecular target: T1, human IBAT (Homo sapiens, UniProt Q12908); experiment: In vitro assay of temporarily expressed human IBAT transporter using Cos 7 cells (Test Example 8); type: cell-based; settings: Cos 7 cells temporarily expressing human IBAT; [3H] taurocholate 8 μM, 37° C., 60 minutes
T1 construct: expressed in transfected cells; host or cells: Cos 7
T1 sequence (Q12908 1-348): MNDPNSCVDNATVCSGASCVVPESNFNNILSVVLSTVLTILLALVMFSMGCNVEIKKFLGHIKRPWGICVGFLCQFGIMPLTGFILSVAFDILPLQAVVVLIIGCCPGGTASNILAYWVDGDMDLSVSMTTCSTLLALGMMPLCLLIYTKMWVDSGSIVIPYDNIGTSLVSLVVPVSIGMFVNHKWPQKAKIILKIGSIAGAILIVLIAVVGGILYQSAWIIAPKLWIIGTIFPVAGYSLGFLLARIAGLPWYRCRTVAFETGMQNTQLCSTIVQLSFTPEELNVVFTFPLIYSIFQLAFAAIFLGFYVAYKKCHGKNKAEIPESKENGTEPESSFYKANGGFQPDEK
Method in brief: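 Cos 7 cells transiently transfected with human or rat IBAT cDNA, assayed one day later in Hank's buffer with 25 mM glucose, 10 mM HEPES (pH 7.4) plus compound. Uptake of 8 μM [^3H]taurocholate over 60 min at 37 °C, stopped with 1 mM taurocholate washes; lysate radioactivity by scintillation counting.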

[6] = 0.3 mg/kg oral with cholic acid 200 mg/kg, HCO-60 0.1%

## CCCC[C@@]1(CC)CS(=O)(=O)c2cc(OC)c(OC)cc2[C@H](c2ccccc2)N1 (relative stereo) [Compound B, Trans-3-butyl-3-ethyl-2,3,4,5-tetrahydro-7,8-dimethoxy-5-phenyl-1,4-benzothiazepine-1,1-dioxide]
[1]; Table 17, 1 mg/kg oral
  ALP: 1335 ± 116 IU/L
  ALT: 138 ± 54 IU/L
  AST: 261 ± 63 IU/L
[2]; Table 19, 0.1 mg/kg
  ALT: 54 ± 6 IU/L
  AST: 110 ± 4 IU/L

## CCCC[C@@]1(CC)CS(=O)(=O)c2ccccc2[C@H](c2ccccc2)N1 (relative stereo) [Compound C, Trans-3-butyl-3-ethyl-2,3,4,5-tetrahydro-5-phenyl-1,4-benzothiazepine-1,1-dioxide]
[1]; Table 16, 10 mg/kg oral
  ALP: 948 ± 208 IU/L
  ALT: 113 ± 44 IU/L
  AST: 313 ± 82 IU/L
[2]; Table 18, 10 mg/kg
  ALT: 53 ± 6 IU/L
  AST: 100 ± 2 IU/L

## CCCCC1(CCCC)CS(=O)(=O)c2ccc(N(C)C)cc2[C@H](c2cccc([N+](C)(C)C)c2)[C@@H]1O.[I-] (relative stereo) [Compound D, Cis-[3-(3,3-dibutyl-7-dimethylamino-4-hydroxy-1,1-dioxo-2,3,4,5-tetrahydro-1-benzothiepin-5-yl)phenyl]trimethyl-ammonium iodide]
[1]; Table 16, 10 mg/kg oral
  ALP: 715 ± 24 IU/L
  ALT: 73 ± 17 IU/L
  AST: 275 ± 12 IU/L
[2]; Table 18, 10 mg/kg
  ALT: 46 ± 4 IU/L
  AST: 100 ± 9 IU/L

## CCCCC1(CCCC)CS(=O)(=O)c2ccc(N(C)C)cc2C(c2ccc(OCc3ccc(C[N+]45CCN(CC4)CC5)cc3)cc2)N1.[Cl-] (centres unmarked) [Comparative Example 2, 1-{4-[4-(3,3-Dibutyl-7-dimethylamino-1,1-dioxo-2,3,4,5-tetrahydro-1,4-benzothiazepin-5-yl)phenoxymethyl]benzyl}-4-aza-1-azoniabicyclo[2.2.2]octane chloride]
[3]; in words
  cytotoxicity to Caco 2 cells: showed cytotoxicity to small intestine epithelial cell line at low concentrations
[1]; Table 17, 10 mg/kg oral
  ALP: 1266 ± 160 IU/L
  ALT: 281 ± 103 IU/L
  AST: 547 ± 159 IU/L

## CCC(CC)CC(=O)c1c(C(=O)OC)c(-c2ccc(OC)c(OC)c2)c2c(OC)c(OC)c(OC)cc2c1O [Compound E, Methyl 1-(3,4-dimethoxyphenyl)-3-(3-ethylvaleryl)-4-hydroxy-6,7,8-trimethoxy-2-naphthoate]
[1]; Table 17, 10 mg/kg oral
  ALP: 1345 ± 145 IU/L
  ALT: 180 ± 68 IU/L
  AST: 280 ± 72 IU/L
[2]; Table 19, 10 mg/kg
  ALT: 46 ± 3 IU/L
  AST: 105 ± 11 IU/L

## CCC(CC)CC(=O)c1c(C(=O)OC)c(-c2ccc(OC)c(OC)c2)c2c(OC)c(OC)c(OC)cc2c1OC1OC(C(=O)O)C(O)C(O)C1O [Compound F, {1-O-[4-(3,4-dimethoxyphenyl)-2-(3-ethyl-pentanoyl)-5,6,7-trimethoxy-3-(methoxycarbonyl)naphthalen-1-yl]-β-D-glucopyranosido}uronic acid]
[1]; Table 17, 10 mg/kg oral
  ALP: 1423 ± 115 IU/L
  ALT: 214 ± 53 IU/L
  AST: 320 ± 66 IU/L
[2]; Table 19, 10 mg/kg
  ALT: 58 ± 5 IU/L
  AST: 123 ± 16 IU/L

## CCCCC1(CCCC)CS(=O)(=O)c2ccc(N(C)C)cc2C(c2cccc(NC(=S)CCCCC[N+](C)(C)Cc3ccccc3)c2)N1 (centres unmarked) [Example 3835]
[4]; 0.1 mg/kg oral with cholic acid 200 mg/kg, Tween 20 0.05%
  Rate of decrease (%) of bile acid: 23%
[5]
  IC50: 43 nM
[3]; 3 μM
  Toxicity (%) to Caco 2: <1%
[3]; 10 μM
  Toxicity (%) to Caco 2: <1%
[3]; 30 μM
  Toxicity (%) to Caco 2: <1%

## CCCCC1(CCCC)CS(=O)(=O)c2ccc(N(C)C)cc2C(c2cccc(NC(=S)Nc3ccc(CC[N+](C)(C)Cc4ccccc4)cc3)c2)N1 (centres unmarked) [Example 5043]
[4]; [6]
  Rate of decrease (%) of bile acid: 39%
[5]
  IC50: 62 nM
[3]; 3 μM
  Toxicity (%) to Caco 2: <1%
[3]; 10 μM
  Toxicity (%) to Caco 2: <1%
[3]; 30 μM
  Toxicity (%) to Caco 2: <1%

## CCCCC1(CCCC)CS(=O)(=O)c2ccc(N(C)C)cc2C(c2cccc(NC(=S)Nc3ccc(CC[N+]45CCC(CC4)CC5)cc3)c2)N1 (centres unmarked) [Example 5298]
[4]; [6]
  Rate of decrease (%) of bile acid: 40%
[5]
  IC50: 76 nM
[3]; 3 μM
  Toxicity (%) to Caco 2: <1%
[3]; 10 μM
  Toxicity (%) to Caco 2: <1%
[3]; 30 μM
  Toxicity (%) to Caco 2: <1%
